{"source": "paper PMC6379368", "about": "“Extracellular and intracellular small-molecule galectin-3 inhibitors” (Scientific Reports, 2019)", "format_in_all_cases": "cell-based", "key": {"MCF-7 cells": {"system": "MCF-7 cells", "experiment": "MTT cell viability assay, MCF-7", "conditions": "MCF-7, 72 hours, 0.04–40 µM for 1 and 2, 0.04–20 µM for 3", "procedure": "(§1) The MTT (3-[4,5-dimethylthiazol-2-yl]−2,5-diphenyltetrazolium bromide) assays were performed as previously described. […] The cells were incubated for 24 hours before addition of galectin-3 inhibitors. The inhibitors were diluted in PBS from their respective stock solution in DMSO (see Galectin-3 inhibitors) and used at final concentrations ranging from 0.04 to 40 μM. DMSO was adjusted to make the final DMSO concentration 0.2% for all inhibitor concentrations, including the control sample (no inhibitor). After 72 hours of treatment, 20 μl of 5 mg/ml MTT solution (in PBS) was added to each well and incubation continued for 1 hour at 37 °C. Thereafter, the MTT containing medium was removed and 100 μl of DMSO was added per well and the plates swirled gently for 10 minutes to dissolve the cells and the purple formazan product precipitate. Absorbance was monitored at 540 nm using a Labsystems iEMS Reader MF (Labsystems Oy, Helsinki, Finland) and the software DeltaSoft II v.4.14 (Biometallics Inc., Princeton, NJ, USA)."}, "MIA PaCa-2 cells": {"system": "MIA PaCa-2 cells", "experiment": "MTT assay, MIA PaCa-2 pancreatic cancer cells", "conditions": "MIA PaCa-2, 72 hours", "procedure": "(§2) The MTT (3-[4,5-dimethylthiazol-2-yl]−2,5-diphenyltetrazolium bromide) assays were performed as previously described. In brief, cells were seeded in 96-well plates (6000 cells/well for MCF-7 and HCC1937 and 5000 cells for JIMT-1 in 180 μl fully-supplemented medium as described under Cell culture). The cells were incubated for 24 hours before addition of galectin-3 inhibitors. The inhibitors were diluted in PBS from their respective stock solution in DMSO (see Galectin-3 inhibitors) and used at final concentrations ranging from 0.04 to 40 μM. DMSO was adjusted to make the final DMSO concentration 0.2% for all inhibitor concentrations, including the control sample (no inhibitor). After 72 hours of treatment, 20 μl of 5 mg/ml MTT solution (in PBS) was added to each well and incubation continued for 1 hour at 37 °C. […] Absorbance was monitored at 540 nm using a Labsystems iEMS Reader MF (Labsystems Oy, Helsinki, Finland) and the software DeltaSoft II v.4.14 (Biometallics Inc., Princeton, NJ, USA). […]\n(§3) Fluorescence anisotropy assay\n(§4) The affinity between inhibitor 1 and the carbohydrate recognition domain (CRD) of galectin-8C and between inhibitor 3 and the CRD of galectin-2, -4N, -4C, 8C, and -9C was determined using the fluorescence anisotropy assay described in the main article. […]"}, "PanC-1 cells": {"system": "PanC-1 cells", "experiment": "Growth curves, PanC-1", "conditions": "PanC-1, 10 µM", "procedure": "(§5) METHODS (not described in main article)\n(§6) The AsPC-1, BxPc-3, MIA PaCa-2, and PanC-1 pancreatic cancer cell lines were purchased from the American Type Culture Collection (ATCC) (Manassas, VA, USA). AsPC-1 and BxPc-3 cell lines were cultured in RPMI-1640 medium, and MIA PaCa-2 and PanC-1 in Dulbecco's Modified Eagle Medium (DMEM)/Ham's F12 medium mixture (1:1). The medium of all four pancreatic cancer cell lines was supplemented with 10 % fetal bovine serum (FBS), 100 U/ml penicillin, and 100 μg/ml streptomycin. The L56Br-C1 breast cancer cell line was established at Lund University (Lund, Sweden)1, and was cultured in RPMI-1640 medium supplemented with 10 % heat-inactivated FBS, 100 U/ml penicillin, 100 μg/ml streptomycin, 1 mM non-essential amino acids, and 10 µg/ml insulin. The MCF-10A normal-like breast cell line was obtained from ATCC and was cultured in the same medium mixture as L56Br-C1 with the addition of 20 ng/ml epidermal growth factor, 50 ng/ml cholera toxin, and 500 ng/ml hydrocortisone.\nas §3\nas §4, with “article. Experimental conditions used for each galectin” for “article.”"}, "AsPC-1 cells": {"system": "AsPC-1 cells", "experiment": "Growth curves, AsPC-1", "conditions": "AsPC-1, 10 µM", "procedure": "as §5, §6, §3\nas §4, with “article. Experimental conditions used for each galectin” for “article.”"}, "L56Br-C1 cells": {"system": "L56Br-C1 cells", "experiment": "Growth curves, L56Br-C1 breast cancer cells", "conditions": "L56Br-C1, 10 µM", "procedure": "as §5, §6, §3\nas §4, with “article. Experimental conditions used for each galectin” for “article.”"}, "HCC1937 cells": {"system": "HCC1937 cells", "experiment": "MTT cell viability assay, HCC1937", "conditions": "HCC1937, 72 hours, 0.04–40 µM for 1 and 2, 0.04–20 µM for 3", "procedure": "as §1"}, "BxPc-3 cells": {"system": "BxPc-3 cells", "experiment": "MTT assay, BxPc-3 pancreatic cancer cells", "conditions": "BxPc-3, 72 hours", "procedure": "as §2, §3, §4"}}, "data": [{"smiles": "OC[C@H]1O[C@@H](S[C@@H]2O[C@H](CO)[C@H](O)[C@H](n3cc(-c4cccc(F)c4)nn3)[C@H]2O)[C@H](O)[C@@H](n2cc(-c3cccc(F)c3)nn2)[C@H]1O", "note": "[compound 1]", "values": [{"measurement": "cell viability (MTT)", "setting": "MCF-7 cells", "result": "no apparent change in cell viability"}, {"measurement": "toxicity (MTT)", "setting": "MIA PaCa-2 cells", "result": "low toxicity"}, {"measurement": "cell proliferation (growth curves)", "setting": "PanC-1 cells", "result": "no effect"}, {"measurement": "cell proliferation (growth curves)", "setting": "AsPC-1 cells", "result": "no effect"}, {"measurement": "cell proliferation (growth curves)", "setting": "L56Br-C1 cells", "result": "no effect"}, {"measurement": "cell viability (MTT)", "setting": "HCC1937 cells", "result": "no apparent change in cell viability"}, {"measurement": "toxicity (MTT)", "setting": "BxPc-3 cells", "result": "low toxicity"}]}]}
